We go through 19 molecules from patent US10981894B2, “Melanocortin subtype-2 receptor (MC2R) antagonists and uses thereof” (Crinetics Pharmaceuticals, Inc., priority 2018, dated 2021).

The target of the experiment is hMC2 receptor (Homo sapiens, UniProt Q01718). As to the kind of experiment: hMC2 membrane binding assay ([125I]ACTH (1-39) Tyr23, SPA). The note with it: crude hMC2R membranes from CRE-bla-CHO-K1 cells expressing hMC2 receptor and hMRAP; [125I]ACTH (1-39) Tyr23 0.2 nM; 1.5 hours at room temperature; read-out: MC2R binding potency. Details: scale not given here. A digest of the protocol:
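CRE-bla-CHO-K1 membranes co-expressing hMC2 receptor and hMRAP, preincubated with WGA PVT SPA beads in pH 7.4 HEPES/MgCl2/CaCl2/0.2% BSA buffer. Compounds (typically 0–10,000 nM final) compete with 0.2 nM [125I]ACTH(1-39) Tyr23 for 1.5 h at room temperature. SPA counts give Ki by non-linear regression.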

Sequence of hMC2 receptor (Q01718 whole entry): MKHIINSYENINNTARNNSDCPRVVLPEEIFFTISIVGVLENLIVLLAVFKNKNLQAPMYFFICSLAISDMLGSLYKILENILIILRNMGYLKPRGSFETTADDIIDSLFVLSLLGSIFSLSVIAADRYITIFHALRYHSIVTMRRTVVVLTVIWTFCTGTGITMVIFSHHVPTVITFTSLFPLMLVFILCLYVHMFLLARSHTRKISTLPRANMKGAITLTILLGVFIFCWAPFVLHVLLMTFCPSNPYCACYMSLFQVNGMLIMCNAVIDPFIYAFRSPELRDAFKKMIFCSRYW
Sequence of hMC2 receptor (Q8TCY5 whole entry partner): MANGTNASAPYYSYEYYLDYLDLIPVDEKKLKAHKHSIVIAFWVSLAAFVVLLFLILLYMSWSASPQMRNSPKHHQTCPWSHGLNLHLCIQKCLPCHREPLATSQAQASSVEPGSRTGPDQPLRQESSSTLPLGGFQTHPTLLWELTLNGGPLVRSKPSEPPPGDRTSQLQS

With `CCOc1ncccc1-c1ccc(N2CCN(C(=O)C3(C(F)(F)F)CCCC3)C[C@H]2CC)c(C(=O)NC[C@H]2CCCN2C)n1` [Compound 1-333, 2′-ethoxy-5-[(2R)-2-ethyl-4-[1-(trifluoromethyl)cyclopentanecarbonyl]piperazin-1-yl]-N-{[(2R)-1-methylpyrrolidin-2-yl]methyl}-[2,3′-bipyridine]-6-carboxamide], the Ki is under 10 nM.
The same measure for `CCOc1ncccc1-c1ccc(N2CCN(C(=O)c3ccc(Cl)cc3C(F)(F)F)C[C@H]2CC)c(C(=O)NC[C@@H]2CCCN2)c1` [Compound 1-98, 2-[(2R)-4-[4-chloro-2-(trifluoromethyl)benzoyl]-2-ethylpiperazin-1-yl]-5-(2-ethoxypyridin-3-yl)-N-{[(2S)-pyrrolidin-2-yl]methyl}benzamide]: under 10 nM.
For the molecule `CCOc1ncccc1-c1ccc(N2CCN(C(=O)c3ccc(C4CC4)cc3C)C[C@H]2CC)c(C(=O)NCCN)c1` [Compound 1-88, N-(2-aminoethyl)-2-[(2R)-4-(4-cyclopropyl-2-methylbenzoyl)-2-ethylpiperazin-1-yl]-5-(2-ethoxypyridin-3-yl)benzamide], the Ki is under 10 nM.
The same measure for `CCOc1ncccc1-c1ccc(N2CCN(C(=O)c3ccc(Cl)cc3C(F)(F)F)C[C@H]2CC)c(C(=O)NCCN(C)C)c1` [Compound 1-47, 2-[(2R)-4-[4-chloro-2-(trifluoromethyl)benzoyl]-2-ethylpiperazin-1-yl]-N-[2-(dimethylamino)ethyl]-5-(2-ethoxypyridin-3-yl)benzamide]: under 10 nM.
In the case of `CCOc1ncccc1-c1ccc(N2CCN(C(=O)c3ccc(C(F)(F)F)nc3N(C)C)C[C@H]2CC)c(C(=O)NCCN)c1` [Compound 1-76, N-(2-aminoethyl)-2-[(2R)-4-[2-(dimethylamino)-6-(trifluoromethyl)pyridine-3-carbonyl]-2-ethylpiperazin-1-yl]-5-(2-ethoxypyridin-3-yl)benzamide] it was under 10 nM; in that of `CC[C@@H]1CN(C(=O)c2ccc(C(F)(F)F)cc2Cl)CCN1c1ccc(-c2ccccc2COC)cc1C(=O)NCCN` [Compound 1-16, (R)-N-(2-aminoethyl)-4-(4-(2-chloro-4-(trifluoromethyl)benzoyl)-2-ethylpiperazin-1-yl)-2′-(methoxymethyl)-[1,1′-biphenyl]-3-carboxamide], 10 to 100 nM; in that of `CCOc1ncccc1-c1ccc(N2CCN(C(=O)c3ccc(C)cc3Cl)C[C@H]2CC)c(C(=O)NCCN)c1` [Compound 1-43, N-(2-aminoethyl)-2-[(2R)-4-(2-chloro-4-methylbenzoyl)-2-ethylpiperazin-1-yl]-5-(2-ethoxypyridin-3-yl)benzamide], under 10 nM.
The same measure for `CCOc1ccccc1-c1ccc(N2CCN(C(=O)c3ccc(Cl)cc3C(F)(F)F)C[C@H]2CC)c(C(=O)NCCNC)n1` [Compound 1-208, 3-[(2R)-4-[4-chloro-2-(trifluoromethyl)benzoyl]-2-ethylpiperazin-1-yl]-6-(2-ethoxyphenyl)-N-[2-(methylamino)ethyl]pyridine-2-carboxamide]: under 10 nM; for `CCOc1ncccc1-c1ccc(N2CCN(C(=O)c3ccc(F)cc3C(F)F)C[C@H]2CC)c(C(=O)NCCN(C)C)c1F` [Compound 1-176, 6-[(2R)-4-[2-(difluoromethyl)-4-fluorobenzoyl]-2-ethylpiperazin-1-yl]-N-[2-(dimethylamino)ethyl]-3-(2-ethoxypyridin-3-yl)-2-fluorobenzamide]: under 10 nM.
Regarding `CCOc1ccccc1-c1ccc(N2CCN(C(=O)n3ccc4cccc(C(F)(F)F)c43)C[C@H]2CC)c(C(=O)N[C@@H]2CCN(C)C2)n1` [Compound 1-437, 6-(2-ethoxyphenyl)-3-[(2R)-2-ethyl-4-[7-(trifluoromethyl)-1H-indole-1l-carbonyl]piperazin-1-yl]-N-[(3R)-1-methylpyrrolidin-3-yl]pyridine-2-carboxamide], the Ki is under 10 nM.
The same measure for `CCOc1ncccc1-c1ccc(N2CCN(C(=O)c3ccc(Cl)cc3C(F)(F)F)C[C@H]2CC)c(C(=O)NCCN)c1` [Compound 1-37, N-(2-aminoethyl)-2-[(2R)-4-[4-chloro-2-(trifluoromethyl)benzoyl]-2-ethylpiperazin-1-yl]-5-(2-ethoxypyridin-3-yl)benzamide]: under 10 nM; for `CCOc1ncccc1-c1ccc(N2CCN(C(=O)c3ccc(Cl)cc3C(F)(F)F)C[C@H]2CC)c(C(=O)N[C@@H]2CCCNC2)c1` [Compound 1-99, 2-[(2R)-4-[4-chloro-2-(trifluoromethyl)benzoyl]-2-ethylpiperazin-1-yl]-5-(2-ethoxypyridin-3-yl)-N-[(3R)-piperidin-3-yl]benzamide]: under 10 nM.
The same measure for `CCOc1ncccc1-c1ccc(N2CCN(C(=O)c3ccc(F)cc3Cl)C[C@H]2CC)c(C(=O)N[C@@H]2CCN(C)C2)n1` [Compound 1-261, 5-[(2R)-4-[2-chloro-4-fluorobenzoyl]-2-ethylpiperazin-1-yl]-2′-ethoxy-N-[(3R)-1-methylpyrrolidin-3-yl]-[2,3′-bipyridine]-6-carboxamide]: under 10 nM.
The same measure for `CCOc1ncccc1-c1ccc(N2CCN(C(=O)N3CCc4cccc(C#N)c43)C[C@H]2CC)c(C(=O)N[C@H]2CCN(C)C2)n1` [Compound 1-404, 5-[(2R)-4-(7-cyano-2,3-dihydro-1H-indole-1-carbonyl)-2-ethylpiperazin-1-yl]-2′-ethoxy-N-[(3S)-1-methylpyrrolidin-3-yl]-[2,3′-bipyridine]-6-carboxamide]: under 10 nM.
Turning to `CCOc1ncccc1-c1ccc(N2CCN(C(=O)c3ccc(Cl)cc3C(F)(F)F)C[C@H]2CC)c(C(=O)NCCc2nccn2C)n1` [Compound 1-234, 5-[(2R)-4-[4-chloro-2-(trifluoromethyl)benzoyl]-2-ethylpiperazin-1-yl]-2′-ethoxy-N-[2-(1-methyl-1H-imidazol-2-yl)ethyl]-[2,3′-bipyridine]-6-carboxamide], the Ki was under 10 nM.
As for `CCOc1ncccc1-c1ccc(N2CCN(C(=O)C3(C(F)(F)F)CCC3)C[C@H]2CC)c(C(=O)NC[C@@H]2CCN2C)n1` [Compound 1-390, 2′-ethoxy-5-[(2R)-2-ethyl-4-[1-(trifluoromethyl)cyclobutanecarbonyl]piperazin-1-yl]-N-{[(2S)-1-methylazetidin-2-yl]methyl}-[2,3′-bipyridine]-6-carboxamide], the Ki was 10 to 100 nM.
Take `CCOc1ccccc1-c1ccc(N2CCN(C(=O)C3(C(F)(F)F)CCCC3)C[C@H]2CC)c(C(=O)N[C@@H]2CCNC2)n1` [Compound 1-304, 6-(2-ethoxyphenyl)-3-[(2R)-2-ethyl-4-[1-(trifluoromethyl)cyclopentanecarbonyl]piperazin-1-yl]-N-[(3R)-pyrrolidin-3-yl]pyridine-2-carboxamide]: the Ki was under 10 nM.
As to `CCOc1ncccc1-c1ccc(N2CCN(C(=O)c3ccc(OC)nc3C(F)(F)F)C[C@H]2CC)c(C(=O)NCCNC)c1F` [Compound 1-164, 3-(2-ethoxypyridin-3-yl)-6-[(2R)-2-ethyl-4-[6-methoxy-2-(trifluoromethyl)pyridine-3-carbonyl]piperazin-1-yl]-2-fluoro-N-[2-(methylamino)ethyl]benzamide], the Ki was under 10 nM.
In the case of `CCOc1ncccc1-c1ccc(N2CCN(C(=O)c3ccc(Cl)cc3C(F)(F)F)C[C@H]2CC)c(C(=O)N[C@@H]2CNC[C@H]2F)n1` [Compound 1-276, 5-[(2R)-4-[4-chloro-2-(trifluoromethyl)benzoyl]-2-ethylpiperazin-1-yl]-2′-ethoxy-N-[(3R,4R)-4-fluoropyrrolidin-3-yl]-[2,3′-bipyridine]-6-carboxamide] it was under 10 nM.
